Patent US20240009220A1, “METHODS FOR TREATMENT OF VIRAL INFECTIONS” (priority 2022, published 2024)
Where two headings read alike, the source gives them in different places.

How the values were obtained:
[1] = female, Wistar Han, rat, in vivo, po, 250 mg/kg/day
Procedure: (§1) The effects of compound 16 on pregnant Wistar Han rats and development of the embryo consequent to exposure of the female from implantation to closure of the hard palate were evaluated. Compound 16 was administered to 4 groups of presumed pregnant rats (8/group) at doses of 0 (vehicle), 125, 250, and 500 mg/kg/day via once daily gavage administration during organogenesis (gestation days [GD] 6 to 17) at a dose volume of 5 mL/kg. Additional pregnant rats were similarly dosed for toxicokinetic assessment of compound 16 and compound 1. Assessment of toxicity to the pregnant rats was based on mortality, clinical observations, body weights and food consumption. Rats were necropsied and cesarean sectioned on GD 21. An examination of the external features of the carcass; external body orifices; abdominal, thoracic, pelvic, and oral cavities; organs; and tissues was performed. Any macroscopic abnormalities were noted. Pregnancy status was determined. The uterus from each pregnant animal was excised, weighed, and examined for the number and placement of live and dead fetuses, the number of early or late resorptions, and any abnormalities. The right and left ovaries from each pregnant female were examined for the number of corpora lutea. Each fetus was sexed, weighed, and examined for external abnormalities. […]

SARS-CoV-2 Fluc = type: cell-based
[2] = female, New Zealand White, rabbit, in vivo, po, 125 mg/kg/day
Procedure: (§2) The effects of compound 16 on pregnant New Zealand White (NZW) rabbits and the development of the embryo consequent to exposure of the female from implantation to closure of the hard palate (Gestation Days [GD] 7 through 19) was evaluated. Compound 16 was administered to 4 groups of pregnant rabbits (20/group) at doses of 0 (0.5% methylcellulose in deionized water), 125, 250, and 500 mg/kg/day once daily via oral gavage during organogenesis (GD 7 to 19). Assessment of toxicity was based on mortality, clinical observations, body weights, food consumption, and necropsy and cesarean section findings. In addition, blood samples were collected for toxicokinetic evaluation of compound 16 and compound 1 from similarly dosed animals (4/group).

[3] = Enhanced dose range-finding embryo-fetal development study of compound 16 by oral gavage in Wistar Han rats; details: female, Wistar Han, rat, in vivo, po
Procedure: as §1

pregnant Wistar Han rats [4] = assay: as above; details: rat, in vivo
Procedure: as §1

[5] = Oral gavage embryo-fetal development study with compound 16 in rabbits; details: female, New Zealand White, rabbit, in vivo, po
Procedure: as §2

[6] = test system: pregnant New Zealand White (NZW) rabbits; assay: as above
Procedure: as §2

[7] = Embryo-fetal development study of compound 16 by oral gavage in Wistar Han rats; type: in vivo; details: female, rat, in vivo; pregnant Wistar Han rats, once daily oral gavage GD 6 to 17, definitive study; read-out: no-observed-adverse-effect level (NOAEL) for maternal toxicity and embryofetal development
Procedure: (§3) The potential of compound 16 to induce developmental toxicity after maternal exposure during the critical period of organogenesis (GD 6 through 17) were evaluated, maternal toxicity at the exposure levels tested was characterized, and a no observed-adverse-effect level (NOAEL) for maternal toxicity and developmental toxicity following oral administration in Wistar Han rats was determined.
(§4) Rats were necropsied and cesarean sectioned on GD 21. […] Any macroscopic abnormalities were noted. Pregnancy status was determined. […] The thoracic and abdominal cavities were opened and dissected using a technique described by Stuckhardt and Poppe (1984). Fetal kidneys were examined and graded for renal papillae development (Woo and Hoar, 1972). The heads from these fetuses were removed and placed in Harrison's fixative for soft tissue examination using the Wilson sectioning technique (Wilson, 1965). The remaining fetuses (approximately one-half from each litter), were eviscerated, fixed in 100% ethyl alcohol, macerated in potassium hydroxide and stained with Alizarin Red S by a method similar to that described by Dawson (1926) for subsequent examination of skeletons.

pregnant Wistar Han rats [8] = assay: as above; type: in vivo; details: 125 and 250 mg/kg/day, GD 6 to 17, rats
Procedure: as §3, §4

SMILES	compound 1 AUC0-24h exposure [1]	Bliss independence consensus score, Average of Replicates (SARS-CoV-2 Fluc)	drug combination effect by Bliss score (SARS-CoV-2 Fluc)	compound 1 AUC0-24h exposure [2]	NOAEL [3]	tolerability of dose level (pregnant Wistar Han rats [4])	NOAEL [5]	skeletal malformations ([6]; rabbit fetuses)	fetal visceral findings ([6]; rabbit, in vivo, 250 mg/kg/day)	NOAEL [7]	effects on intrauterine growth or survival (pregnant Wistar Han rats [8])	external, visceral or skeletal malformations or variations (pregnant Wistar Han rats [8])
N#C[C@@]1(c2ccc3c(N)ncnn23)O[C@H](CO)[C@@H](O)[C@H]1O [Compound 1]	183,000 ng*h/mL	8.00±1.09	Additive	64,100 ng*h/mL								
CC(C)C(=O)OC[C@H]1O[C@@](C#N)(c2ccc3c(N)ncnn23)[C@H](O)[C@@H]1O [Compound 16]		6.15±2.16	Additive		250 mg/kg/day	not tolerated	125 mg/kg/day	No compound 16-related skeletal malformations	increased rates of ventricular septum defects, large or small heart ventricles, dilated or malpositioned aortas, retroesophageal aortic arches, retroesophageal subclavian arteries, abnormal lobulation of the liver	250 mg/kg/day	No compound 16-related effects	No compound 16-related external, visceral or skeletal malformations or variations
CC(C)C(=O)OC[C@H]1O[C@@H](n2ccc(NO)nc2=O)[C@H](O)[C@@H]1O [molnupiravir, Molnupiravir, reference compound]		−2.47	Additive									
CC(C)(C)[C@H](NC(=O)C(F)(F)F)C(=O)N1C[C@H]2[C@@H]([C@H]1C(=O)N[C@H](C#N)C[C@@H]1CCNC1=O)C2(C)C [nirmatrelvir, reference compound]		0.13±1.53	Additive									
